Experimental findings from US20230107642A1 (Erasca, Inc., priority 2020, published 2023) are described below.

In one experiment the target is T1, K-Ras G12C (Homo sapiens, UniProt P01116, G12C).
T1 construct: This protein contained 188 amino acids in total, including an N-terminal 6-Histidine tag; made in house; host or cells: E. coli BL21
The experiment can be described thus: CAF assay (% CAF; method in Example 7, not in this part). The conditions noted are these: 10 uM compound, 1 h incubation. It counts as binding.
`C=CC(=O)N1CCN(c2nc(=O)n3c4c(c(-c5c(F)ccc6[nH]ncc56)c(Cl)cc24)SCC3)[C@@H](C)C1` [Example 408, 7-((S)-4-acryloyl-2-methylpiperazin-1-yl)-9-chloro-10-(5-fluoro-1H-indazol-4-yl)-2,3-dihydro-5H-[1,4]thiazino[2,3,4-ij]quinazolin-5-one]: the “% CAF @ 10 uM, 1h” value is on record as 39.3%. The same measure, in the same setting: the same measure for `C=CC(=O)N1CCN(c2nc(=O)n3c4c(c(-c5cc(F)c(F)cc5F)c(Cl)cc24)SCC3)[C@@H](C)C1` [Example 409, 7-((S)-4-acryloyl-2-methylpiperazin-1-yl)-9-chloro-10-(2,4,5-trifluorophenyl)-2,3-dihydro-5H-[1,4]thiazino[2,3,4-ij]quinazolin-5-one]: 94%; for `C=CC(=O)N1CCN(c2nc(=O)n3c4c(c(-c5ccc(F)cc5)c(Cl)cc24)SC[C@@H]3CN2CCN(CC)CC2)[C@@H](C)C1` [Example 410, (S)-7-((S)-4-acryloyl-2-methylpiperazin-1-yl)-9-chloro-3((4-ethylpiperazin-1-yl)methyl)-10-(4-fluorophenyl)-2H-[1,4]thiazino[2,3,4-ij]quinazolin-5(3H)-one]: 83.9%. In the case of `C=CC(=O)N1CCN(c2nc(=O)n3c4c(c(-c5ccc(F)cc5F)c(Cl)cc24)SC[C@@H]3CN2CCN(C)CC2)[C@@H](C)C1` [Example 411, (3S)-7-((S)-4-acryloyl-2-methylpiperazin-1-yl)-9-chloro-10-(2,4-difluorophenyl)-3-((4-methylpiperazin-1-yl)methyl)-2H-[1,4]thiazino[2,3,4-ij]quinazolin-5(3H)-one], the “% CAF @ 10 uM, 1h” value is listed as 93.3%.

Consider `C=CC(=O)N1CCN(c2nc(=O)n3c4c(c(-c5cc(Cl)c(F)cc5F)c(Cl)cc24)SC[C@@H]3CN2CCN(CC)CC2)[C@@H](C)C1` [Example 412, (3S)-7-((S)-4-acryloyl-2-methylpiperazin-1-yl)-9-chloro-10-(5-chloro-2,4-difluorophenyl)-3-((4-ethylpiperazin-1-yl)methyl)-2H-[1,4]thiazino[2,3,4-ij]quinazolin-5(3H)-one], for which the “% CAF @ 10 uM, 1h” value is 73.6%. As for `C=CC(=O)N1CCN(c2nc(=O)n3c4c(c(-c5ccc(F)cc5F)c(Cl)cc24)SC[C@@H]3CC2CCN(CC)CC2)[C@@H](C)C1` [Example 413, (3S)-7-((S)-4-acryloyl-2-methylpiperazin-1-yl)-9-chloro-10-(2,4-difluorophenyl)-3-((1-ethylpiperidin-4-yl)methyl)-2H-[1,4]thiazino[2,3,4-ij]quinazolin-5(3H)-one], the “% CAF @ 10 uM, 1h” value came out at 86.6%. Still for that read-out and setting: the value for `C=CC(=O)N1CCN(c2nc(=O)n3c4c(c(-c5ccc(F)cc5F)c(Cl)cc24)SC[C@@H]3CC2CCN(CC(F)F)CC2)[C@@H](C)C1` [Example 414, (3S)-7-((S)-4-acryloyl-2-methylpiperazin-1-yl)-9-chloro-3-((1-(2,2-difluoroethyl)piperidin-4-yl)methyl)-10-(2,4-difluorophenyl)-2H-[1,4]thiazino[2,3,4-ij]quinazolin-5(3H)-one] was 92%; that for `C=CC(=O)N1CCN(c2nc(=O)n3c4c(c(-c5ccc(F)cc5F)c(Cl)cc24)SC[C@@H]3CC2CCN(C3COC3)CC2)[C@@H](C)C1` [Example 415, (3S)-7-((S)-4-acryloyl-2-methylpiperazin-1-yl)-9-chloro-10-(2,4-difluorophenyl)-3-((1-(oxetan-3-yl)piperidin-4-yl)methyl)-2H-[1,4]thiazino[2,3,4-ij]quinazolin-5(3H)-one] was 85.4%; that for `C=CC(=O)N1CCN(c2nc(=O)n3c4c(c(-c5cc(F)c(F)cc5F)c(Cl)cc24)SC[C@@H]3CN2CCN(CC)CC2)[C@@H](C)C1` [Example 416, (3S)-7-((S)-4-acryloyl-2-methylpiperazin-1-yl)-9-chloro-3-((4-ethylpiperazin-1-yl)methyl)-10-(2,4,5-trifluorophenyl)-2H-[1,4]thiazino[2,3,4-ij]quinazolin-5(3H)-one] was 91.2%. Same read-out and setting: the same measure for `C=CC(=O)N1C2CN(c3nc(=O)n4c5c(c(-c6ccc(F)cc6F)c(C(F)(F)F)cc35)SCC4)CC1CC1(COC1)C2` [Example 417, 7-(9-acryloyl-7,9-diazaspiro[bicyclo[3.3.1]nonane-3,3′-oxetan]-7-yl)-10-(2,4-difluorophenyl)-9-(trifluoromethyl)-2,3-dihydro-5H-[1,4]thiazino[2,3,4-ij]quinazolin-5-one]: 2%; for `C=C(F)C(=O)N1C2CC(=O)CC1CN(c1nc(=O)n3c4c(c(-c5ccc(F)cc5F)c(C(F)(F)F)cc14)SCC3)C2` [Example 418, 10-(2,4-difluorophenyl)-7-(9-(2-fluoroacryloyl)-7-oxo-3,9-diazabicyclo[3.3.1]nonan-3-yl)-9-(trifluoromethyl)-2,3-dihydro-5H-[1,4]thiazino[2,3,4-ij]quinazolin-5-one]: 58%; for `C=CC(=O)N1CCN(c2nc(=O)n3c4c(c(-c5ccc(F)c6[nH]ncc56)c(Cl)cc24)SCC3)[C@@H](C)C1` [Example 419, 7-((S)-4-acryloyl-2-methylpiperazin-1-yl)-9-chloro-10-(7-fluoro-1H-indazol-4-yl)-2,3-dihydro-5H-[1,4]thiazino[2,3,4-ij]quinazolin-5-one]: 54.3%. Still for that read-out and setting: the same measure for `CN(C)C/C=C/C(=O)N1C2CC(=O)CC1CN(c1nc(=O)n3c4c(c(-c5ccc(F)cc5F)c(C(F)(F)F)cc14)SCC3)C2` [Example 420, (E)-10-(2,4-difluorophenyl)-7-(9-(4-(dimethylamino)but-2-enoyl)-7-oxo-3,9-diazabicyclo[3.3.1]nonan-3-yl)-9-(trifluoromethyl)-2,3-dihydro-5H-[1,4]thiazino[2,3,4-ij]quinazolin-5-one]: 93%; for `C=CC(=O)N1CCN(c2nc(=O)n3c4c(c(-c5cc(F)c(F)cc5F)c(Cl)cc24)SC[C@@H]3CC2CCN(C3COC3)CC2)[C@@H](C)C1` [Example 421, (3S)-7-((S)-4-acryloyl-2-methylpiperazin-1-yl)-9-chloro-3-((1-(oxetan-3-yl)piperidin-4-yl)methyl)-10-(2,4,5-trifluorophenyl)-2H-[1,4]thiazino[2,3,4-ij]quinazolin-5(3H)-one]: 85.1%; for `C=CC(=O)N1CCN(c2nc(=O)n3c4c(c(-c5ccc(F)cc5F)c(Cl)cc24)SC[C@@H]3CN2CCN(C3CC3)CC2)[C@@H](C)C1` [Example 422, (3S)-7-((S)-4-acryloyl-2-methylpiperazin-1-yl)-9-chloro-3((4-cyclopropylpiperazin-1-yl)methyl)-10-(2,4-difluorophenyl)-2H-[1,4]thiazino[2,3,4-ij]quinazolin-5(3H)-one]: 84.2%. `C=CC(=O)N1CCN(c2nc(=O)n3c4c(c(-c5ccc(F)cc5F)c(Cl)cc24)SC[C@@H]3CC2CCN(C)CC2)[C@@H](C)C1` [Example 423, (3S)-7-((S)-4-acryloyl-2-methylpiperazin-1-yl)-9-chloro-10-(2,4-difluorophenyl)-3-((1-methylpiperidin-4-yl)methyl)-2H-[1,4]thiazino[2,3,4-ij]quinazolin-5(3H)-one]: the “% CAF @ 10 uM, 1h” value stood at 34.1%. Still for that read-out and setting: the same measure for `C=CC(=O)N1CCN(c2nc(=O)n3c4c(c(-c5c(F)cc(F)cc5F)c(Cl)cc24)SC[C@H]3CN2CCN(CC)CC2)[C@@H](C)C1` [Example 424, (R)-7-((S)-4-acryloyl-2-methylpiperazin-1-yl)-9-chloro-3-((4-ethylpiperazin-1-yl)methyl)-10-(2,4,6-trifluorophenyl)-2H-[1,4]thiazino[2,3,4-ij]quinazolin-5(3H)-one]: 13.9%.

Staying with this experiment, now noted: 10 μM, 1 h; Table 4.
Take `C=CC(=O)N1CCN(c2nc(=O)n3c4c(c(-c5ccc(F)cc5F)c(C(F)(F)F)cc24)SC[C@@H]3CN2CCN(C3COC3)CC2)[C@@H](C)C1` [Example 352, (3S)-7-((S)-4-acryloyl-2-methylpiperazin-1-yl)-10-(2,4-difluorophenyl)-3-((4-(oxetan-3-yl)piperazin-1-yl)methyl)-9-(trifluoromethyl)-2H-[1,4]thiazino[2,3,4-ij]quinazolin-5(3H)-one]: the “% CAF @ 10 μM, 1 h” value is given as 96%. On the same count and under the same terms, the same measure for `C=CC(=O)N1CCN(c2nc(=O)n3c4c(c(-c5ccc(F)cc5F)c(C(F)(F)F)cc24)SC[C@@H]3CC2CCN(CC)CC2)[C@@H](C)C1` [Example 353, (3S)-7-((S)-4-acryloyl-2-methylpiperazin-1-yl)-10-(2,4-difluorophenyl)-3-((1-ethylpiperidin-4-yl)methyl)-9-(trifluoromethyl)-2H-[1,4]thiazino[2,3,4-ij]quinazolin-5(3H)-one]: 97%; for `C=CC(=O)N1CCN(c2nc(=O)n3c4c(c(-c5ccc(F)cc5F)c(Cl)cc24)SC[C@@H]3CN2CCN(CC)CC2)[C@@H](C)C1` [Example 354, (3S)-7-((S)-4-acryloyl-2-methylpiperazin-1-yl)-9-chloro-10-(2,4-difluorophenyl)-3-((4-ethylpiperazin-1-yl)methyl)-2H-[1,4]thiazino[2,3,4-ij]quinazolin-5(3H)-one]: 96%; for `C=CC(=O)N1CCN(c2nc(=O)n3c4c(c(-c5ccc(F)cc5F)c(Cl)cc24)SC[C@@H]3CN2CCN(C3COC3)CC2)[C@@H](C)C1` [Example 355, (3S)-7-((S)-4-acryloyl-2-methylpiperazin-1-yl)-9-chloro-10-(2,4-difluorophenyl)-3-((4-(oxetan-3-yl)piperazin-1-yl)methyl)-2H-[1,4]thiazino[2,3,4-ij]quinazolin-5(3H)-one]: 96%. `C=CC(=O)N1CCN(c2nc(=O)n3c4c(c(-c5ccc(F)cc5F)c(Cl)cc24)SC[C@@H]3CN2CCN(CC(F)F)CC2)[C@@H](C)C1` [Example 356, (3S)-7-((S)-4-acryloyl-2-methylpiperazin-1-yl)-9-chloro-3-((4-(2,2-difluoroethyl)piperazin-1-yl)methyl)-10-(2,4-difluorophenyl)-2H-[1,4]thiazino[2,3,4-ij]quinazolin-5(3H)-one]: the “% CAF @ 10 μM, 1 h” value was determined as 95%.
